This data set in a line: Human HepG2 cell viability assay in 384 well format. Conditions: HepG2 cells, read-out: Inhibition. The data set is classed as toxicity, cell-based. Also noted: dose 125 nL, time 70.5 hour; cytotoxicity at 70.5 h: concentration not given beside the values.
As for `CCOc1ccc(NC(=O)N2CCNC(=O)C2)c(C(F)(F)F)c1`, the cytotoxicity at 70.5 h amounted to 1.37%.

For the compound `O=C1NC(c2ccccc2)=N[C@@]12CC[C@@H]1CN(Cc3nccs3)C[C@@H]12`, the cytotoxicity at 70.5 h was -4.6%. Take `CCC(=O)N1CCCN(Cc2cc(F)cc(Br)c2)CC1`: the cytotoxicity at 70.5 h is 16.2%.

Take `CCc1ncc(CN(C)C(=O)Nc2cccnc2N2CCCC2)s1`: the cytotoxicity at 70.5 h is 0.712%. Next, `CC(C)N1CCCC(Cc2cncc(Br)c2)CC1` (stereo not drawn): -4.98%; `Cc1c(C2N3C[C@]4(C)CN2C[C@](C)(C3)C4=O)[nH]c(=O)[nH]c1=O` (stereo partly drawn): -11.7%; `CN(CC(=O)N1CC(C)(C)[C@](O)(C2CC2)C1)Cc1cccnc1`: -3.42%. As for `CN1C(=O)CCCC12CCCN(C(=O)c1cc(F)cc(F)c1)C2` (stereo not drawn), the cytotoxicity at 70.5 h is -9.55%.

With `CCc1ncc(C(=O)N(C)CC2Cc3ccccc3O2)cn1` (stereo not drawn), the cytotoxicity at 70.5 h was 25.4%. `C[C@@H]1C[C@H]2CN(C(=O)C3=CCCC3)C[C@H]2O1`: the cytotoxicity at 70.5 h is -4.11%. Regarding `CC(=O)c1c(C)nn(CC(=O)Nc2ccc(F)cc2)c1C`, the cytotoxicity at 70.5 h turned out to be 30%. `CCc1ncncc1C(=O)N1CCN(Cc2c(C)noc2C)CC1`: the cytotoxicity at 70.5 h was -11.6%.

On to `CC(C1CC1)N(CC(=O)NCC(F)(F)F)C1CC1` (stereo not drawn), for which the cytotoxicity at 70.5 h turned out to be 13.2%. Regarding `Cc1cc(C)nc(N2CCC(c3noc(C)n3)CC2)n1`, the cytotoxicity at 70.5 h is -7.52%. `c1nc(N2CCCCC2Cn2cncn2)c2ccsc2n1` (stereo not drawn): the cytotoxicity at 70.5 h is 14.7%. On to `O=C(NCCCO)c1cc(-c2ccc3c(c2)CCO3)n[nH]1`, for which the cytotoxicity at 70.5 h is 14.5%. On to `COCC(=O)NCc1ccc(-c2ncncc2C(=O)N(C)C)cc1`, for which the cytotoxicity at 70.5 h was -2.25%. `CCN(Cc1nccn1C)C(=O)c1ccc(NCc2cnn(C)c2)nc1`: the cytotoxicity at 70.5 h was -3.96%. As for `CC(C)N1[C@H](Cn2cccn2)C[C@@H]2CN(Cc3ccoc3)CC[C@@H]21`, the cytotoxicity at 70.5 h was -13.4%. Consider `Cn1cc(N2CCN(c3ccc(C#N)cc3Br)CC2=O)cn1`, for which the cytotoxicity at 70.5 h was -4.85%. For `NC(=O)c1cc(C2CCCN(CCOc3ccc(F)cc3)C2)n[nH]1` (stereo not drawn), the cytotoxicity at 70.5 h was -2.25%. As for `OCCn1cc(CN2CCN(CCOc3ccccc3F)CC2)cn1`, the cytotoxicity at 70.5 h came to 16.6%. Next, `CCCNC(=O)NC(=O)CNc1c(F)cccc1N1CCCC1`: -17.8%; `Cc1noc(C(C)N2CCN(CCC(=O)N3CCOCC3)CC2)n1` (stereo not drawn): -5.76%. In the case of `CCOC(=O)[C@]12CCCN(Cc3cccs3)C[C@H]1CN(CC(C)C)C2` it was -2.32%.

Consider `COC(=O)CCNC(=O)c1nc(NS(=O)(=O)c2ccccc2)sc1C`, for which the cytotoxicity at 70.5 h is -23%. With `COc1cccc(CC(=O)N2CCCC(c3n[nH]c4nccnc34)C2)c1` (stereo not drawn), the cytotoxicity at 70.5 h is -10.4%. Next, `CS(=O)(=O)N1CCCC1C(=O)Nc1cnc2n1CCCC2` (stereo not drawn): -20.4%. Regarding `Cc1noc(C2CCCN(C(=O)c3cc(Cl)cn3C)C2)n1` (stereo not drawn), the cytotoxicity at 70.5 h was -4.77%. In the case of `CCc1cc(NC(=O)C(c2cccc(F)c2)N2CCOCC2)[nH]n1` (stereo not drawn), the cytotoxicity at 70.5 h is -4.49%. Consider `CC(C)C(c1cccnc1)N(C)C(=O)Cc1c(F)cccc1F` (stereo not drawn), for which the cytotoxicity at 70.5 h was -6.11%. As to `CC(C)N1CC2(CCCN(Cc3noc(C4CCCC4)n3)C2)CCC1=O` (stereo not drawn), the cytotoxicity at 70.5 h came out at 3.06%. Turning to `Cc1nc(C)n(C2CCCN(C(=O)c3c[nH]c(C(C)C)n3)C2)n1` (stereo not drawn), the cytotoxicity at 70.5 h is -11.1%. In the case of `COc1ccccc1OCCN(C)c1cc(C)nc(N)n1` it was 18.7%; in that of `Clc1ccc(-c2cnc(CNC3CCc4ncnn4C3)o2)cc1` (stereo not drawn), -12.9%. Regarding `COc1ncccc1C(=O)N1CCCC(n2ccnc2C)C1` (stereo not drawn), the cytotoxicity at 70.5 h was -10.3%. On to `COCC(=O)N1CCc2nc(C(=O)N(C)C)sc2CC1`, for which the cytotoxicity at 70.5 h came to 27.3%.

In the case of `Cc1ccc(CC(=O)N2Cc3nccn3CC(CN(C)C)C2)cc1` (stereo not drawn), the cytotoxicity at 70.5 h is -13.3%. As for `Cc1ccc(C(=O)N2CC3(CCCCC3)c3cc(C(=O)O)ccc32)cn1`, the cytotoxicity at 70.5 h amounted to 0.0823%. In the case of `CC(Cn1ccnc1)NCc1n[nH]c2c1CCC2` (stereo not drawn), the cytotoxicity at 70.5 h is -20.8%. On to `CCOC1CCN(C(=O)c2cnn(-c3ccccc3Cl)c2)CC1`, for which the cytotoxicity at 70.5 h was found to be 2.04%. `COCCN1CCN(CC(=O)N(C)Cc2ccccc2)CC1C` (stereo not drawn): the cytotoxicity at 70.5 h was found to be 53.1%. Take `c1ccc(C(CC2CN(Cc3ncc[nH]3)CCO2)c2ccccc2)cc1` (stereo not drawn): the cytotoxicity at 70.5 h was 0.214%. Take `CCCN(Cc1nnnn1C1CC1)CC1COc2ccccc2O1` (stereo not drawn): the cytotoxicity at 70.5 h turned out to be 0.609%.

In the case of `O=C(c1cc2c(s1)CCCCC2)N1CCC(c2ncc[nH]2)CC1`, the cytotoxicity at 70.5 h amounted to 1.98%. Next, `Cc1nc2ccccc2n1Cc1cc(C(=O)N(C)C2CCOCC2)no1`: 12.4%; `CCN1CCC2(CC1)CC(NC(=O)c1csnn1)c1ccccc1O2` (stereo not drawn): -7.53%; `Clc1cccc(-c2nc(CNC3CCc4ncnn4C3)co2)c1` (stereo not drawn): 11.6%. Regarding `COc1ccc(CN2CCn3c(CNS(C)(=O)=O)nnc3C2)cc1`, the cytotoxicity at 70.5 h was found to be 24.4%.

Regarding `COCC(=O)NC1CC2(CCN(CCF)CC2)Oc2ccccc21` (stereo not drawn), the cytotoxicity at 70.5 h was -10.9%.

As for `O=C(NC1CCN(C2CC2)CC1)c1[nH]nc(C2CC2)c1Cl`, the cytotoxicity at 70.5 h is -4.43%. With `Cc1noc(C)c1CN1CCC[C@]2(C[C@@H](Oc3ccccn3)CO2)C1`, the cytotoxicity at 70.5 h is -0.591%. Next, `Cc1cccc(CN2CC[C@H]3C[C@@H](C)O[C@@H]3C2)n1`: 10.9%; `CC(Oc1cc(Cl)cc(Cl)c1)C(=O)NCCC(=O)N(C)C` (stereo not drawn): -6.44%; `CC(=O)c1ccc(S(=O)(=O)N2CCCC2CN2CCCC2)cc1` (stereo not drawn): -8.94%. `CN(Cc1nc2c(cnn2C)c(=O)[nH]1)Cc1ccco1`: the cytotoxicity at 70.5 h was 7.12%. Consider `Clc1ccc2c(c1)C=C(CNC1CCc3ncnn3C1)CO2` (stereo not drawn), for which the cytotoxicity at 70.5 h was -7.55%. `O=C(CCCc1nc2ccccc2[nH]1)N1CCCC1c1ccncc1` (stereo not drawn): the cytotoxicity at 70.5 h turned out to be 32.6%. Turning to `Cc1cnc(CN2CCC(N(C)Cc3nnc(C4CC4)n3C)C2)cn1` (stereo not drawn), the cytotoxicity at 70.5 h was -11%.

Consider `Cc1ccsc1-c1nnc(SCC(=O)O)n1C(C)c1ccccc1` (stereo not drawn), for which the cytotoxicity at 70.5 h was -5.54%. With `Cc1nc(C2CCCN(C(=O)CN3CCCNC3=O)C2)sc1C` (stereo not drawn), the cytotoxicity at 70.5 h is -8.3%. Next, `CCCc1nc(N2CCCCCC2)c2c(n1)c(C)nn2CC`: -11.6%; `O=C(NCc1ccccc1Cl)c1[nH]nc2c1CS(=O)(=O)CC2`: -5.21%.

Take `O=C(O)[C@@H]1CN(C(=O)CCN2CCCCC2)C[C@H]1c1ccccc1`: the cytotoxicity at 70.5 h is -5.31%. Next, `COCC(C)NC(=O)c1nnn(-c2ccc(OC)cc2)n1` (stereo not drawn): -9.57%; `CN(c1ccc(C(=O)NCCCN2CCOCC2)c(Cl)c1)S(C)(=O)=O`: -8.19%; `CS(=O)(=O)NCC1Cc2ccccc2O1` (stereo not drawn): -0.512%. Consider `Cc1ccc(N2CCCC(N(C)Cc3nc(C)c(C)o3)C2)nn1` (stereo not drawn), for which the cytotoxicity at 70.5 h is -11.5%. Consider `Cc1cc(C)c(CNC(=O)NCc2ccncc2)c(=O)[nH]1`, for which the cytotoxicity at 70.5 h is -0.477%. For `CCN(CC1CCOC1)C(=O)Nc1ccc(OC)nc1` (stereo not drawn), the cytotoxicity at 70.5 h is 24.3%. With `Cc1ncncc1C(=O)N1CCOC(c2nc(C(C)C)n[nH]2)C1` (stereo not drawn), the cytotoxicity at 70.5 h was -4.74%.

As to `CC(=O)N1CCc2[nH]nc(C(=O)N3CC=CC3)c2C1`, the cytotoxicity at 70.5 h was determined as 34.9%. In the case of `c1cnc(-c2noc(C3CN(Cc4ccc5c(c4)CCO5)C3)n2)cn1` it was -9.18%; in that of `Cc1cccc(CO[C@H]2CN(c3nnc(C)s3)[C@@H]3CCCO[C@H]23)n1`, 0.219%; in that of `CC(=O)N1N=C(c2cccs2)OC1C(=O)Nc1ccc(C(C)C)cc1` (stereo not drawn), -2.48%. For `c1cncc(OC2CCN(CCn3cc4ccccc4n3)CC2)c1`, the cytotoxicity at 70.5 h is -25.2%.

For `O=C(c1ccc2c(c1)COC2)N1CCC(Nc2cccnn2)CC1`, the cytotoxicity at 70.5 h is -1.47%. In the case of `Cc1noc(C)c1C(=O)N[C@@H]1CCC[C@@H](Oc2ccccc2)[C@@H]1O` it was -1.7%; in that of `CCn1ccnc1CN1CCCN(C(=O)Cc2ccc(C)cc2)CC1`, -1.67%; in that of `CNC(=O)NCC1CCC2(CCN(C(=O)c3cccnc3)CC2)CO1` (stereo not drawn), 3.36%. `CCCc1cc(NCCCC2CCOC2)n2nccc2n1` (stereo not drawn): the cytotoxicity at 70.5 h was -2.1%.

On to `Cc1nc(-c2ccc(C(=O)O)cc2)cc(C2CCN(C(C)C)CC2)n1`, for which the cytotoxicity at 70.5 h was 12.2%.

Consider `Fc1ccc(C2(CNCC(F)F)CCOC2)cc1` (stereo not drawn), for which the cytotoxicity at 70.5 h was -2.85%. In the case of `CS(=O)(=O)NCC1CCCN(C(=O)Nc2cccc3ccccc23)C1` (stereo not drawn) it was -3.21%.

In the case of `CC(C)CCC(C)NC(=O)CN1C=Nc2ccccc2S1(=O)=O` (stereo not drawn), the cytotoxicity at 70.5 h is -8.83%. In the case of `Cn1nccc1-c1nnn2c1COC(CNCc1nccs1)C2` (stereo not drawn) it was 0.565%. Take `C=C(C)CSc1nnc(CCNC(=O)OC(C)(C)C)o1`: the cytotoxicity at 70.5 h was -12.3%. Consider `NC(=O)c1ccc(NC(=O)CCN2CCCC(N3CCCC3)C2)cc1` (stereo not drawn), for which the cytotoxicity at 70.5 h stood at 12.4%.

On to `COc1cc2c(cc1CN1CCc3sccc3C1C)OCO2` (stereo not drawn), for which the cytotoxicity at 70.5 h stood at 2.98%. Regarding `Cc1cc(CNS(=O)(=O)CCCC#N)ccc1N(C)C`, the cytotoxicity at 70.5 h amounted to 0.915%.

For the compound `CS(=O)(=O)N1CCOC2(CCCN(c3cnccn3)C2)C1` (stereo not drawn), the cytotoxicity at 70.5 h was -6.97%.

On to `N[C@H]1CC[C@@H](n2cc(C(=O)NC3CCc4ccccc4C3)nn2)CC1` (stereo partly drawn), for which the cytotoxicity at 70.5 h is -11.5%.

Take `COc1nccc(N2CC[C@@H](N3CCC(O)CC3)[C@H](O)C2)c1C#N`: the cytotoxicity at 70.5 h was 5.37%. Regarding `Cc1ccc(CNC2(Cc3cc(-c4ccc(F)cc4)on3)COC2)o1`, the cytotoxicity at 70.5 h is -2.05%. For `CCc1cnc(C)nc1NCc1nc(COC)no1`, the cytotoxicity at 70.5 h is -6.43%. For the compound `CCOC(=O)N1CC(=O)N(Cc2cccc(OC)c2OC)CC(O)C1` (stereo not drawn), the cytotoxicity at 70.5 h is -5.06%. In the case of `CCC(CC)CN(C)Cc1nc(-c2ccccc2NS(C)(=O)=O)oc1C`, the cytotoxicity at 70.5 h was -5.33%.

For `Cc1ccc(C(=O)N(C2CC2)C2CC(=O)NC2=O)cc1F` (stereo not drawn), the cytotoxicity at 70.5 h is -3.53%.

The values are drawn from ChEMBL document CHEMBL3507680, “University of Dundee, Gates Library screen for HepG2 cell viability”.
